{
  "source": "patent US20260124221A1",
  "about": "“INJECTABLE PHARMACEUTICAL COMPOSITION FOR TREATMENT OF BREAST CANCER” (KASHIV BIOSCIENCES, LLC, priority 2021, published 2026)",
  "key": {"[1]": {"assay": "Stability of Compound I in solubilised composition", "type": "physicochemical", "source_text": "Example 15: Stability of Compound I in Solubilised Composition\nExample 16: Stability of Compound I in Solubilised Composition\nExample 17: Stability of Compound I in Solubilised Composition"}, "in vivo": {"assay": "in vivo", "conditions": "male, cynomolgus monkey, im, 28.3 mg/kg", "procedure": "(§4) Procedure: In this single-dose pharmacokinetics study, four Non-Naïve male Cyno monkeys (Age—2.5-6 years, Weight 2-5 kg) were randomly assigned into two groups to evaluate the pharmacokinetics of Faslodex (1 animal) Vs. Compound I (3 animals) following single intramuscular (IM) administration. The test articles were monitored in plasma for up to 336 h (14 days) following dosing. Faslodex at dose of 25 mg/kg (50 mg/mL fulvestrant strength, 500 mg human equivalent dose) was intramuscularly administrated into monkey at study Day 0. The dosage volume 0.5 mL/kg was equally divided and administered at two sites. Compound I at dose 28.3 mg/kg (25 mg/kg Fulvestrant equivalent) having strength 169.5 mg/mL (150 mg/mL fulvestrant equivalent) was intramuscularly administrated into monkeys at study Day 0. The dosage volume of 0.15 mL/kg was administered on one IM site. Blood samples were collected through cephalic or saphenous vein at 0 (Pre-dose), 0.25, 1, 2, 4, 8, 12, 24, 48, 72, 96, 120, 144, 168, 192, 216, 240, 264, 288, 312, and 336 hours. Plasma concentrations of Compound I and fulvestrant were determined using LC/MS/MS to construct semi-logarithmic plasma concentration-time curves. Pharmacokinetic analysis was performed using non-compartmental model."}, "[2]": {"assay": "Pharmacokinetics after single intramuscular administration in female Beagle dogs (Example 19)", "type": "in vivo", "conditions": "17 mg/kg IM, mean ± SD; for Cmax / Tmax / AUC(0-inf) / AUC(0-t): female, beagle, dog, plasma, im, 17 mg/kg; for AUC(0-inf): read-out: AUCinf—obs of Compound I in plasma; for AUC(0-t): read-out: AUClast of Compound I in plasma", "protocol": "A total of 9 female Beagle dogs were used in this study. The study was performed as a parallel design study.\n(§1) All dogs were administered intramuscularly at the gluteal region.\n(§2) Dose volume was equally divided and administered to two IM sites.\n(§3) At each time point, −0.5 mL of blood was withdrawn and transferred into a pre-labelled K2EDTA coated vacutainer tubes and mixed gently by inverting the tube to facilitate mixing of anticoagulant with the blood. Blood samples were kept on gel packs until centrifugation. The collected blood samples were centrifuged at 5000 rpm for 5 min at 4° C. Plasma was separated after centrifugation. All plasma samples were transferred into pre-labeled (Animal ID No., Time point, Study No., and Group) tubes and stored at −70±10° C. until analysis.\nBioanalysis in plasma samples was performed using fit-for-purpose LC-MS/MS method for the quantification of—Group 1—Fulvestrant • Group 2—Fulvestrant and Compound I • Group 3—Fulvestrant and Compound I\nLinearity range for Fulvestrant and Compound I analytes were 1 to 1000 ng/mL. The bioanalytical summary for Fulvestrant concentration in all three groups is shown in table 4 and graphical representation is shown in FIG. 3 Concentration of pro-drug Compound I is shown in table 5 and graphical representation is shown in FIG. 4. The plasma pharmacokinetic parameters for Fulvestrant and Compound I were calculated using standard non-compartmental analysis (Phoenix® software, version 8.3, Pharsight Corporation, Mountain View, California 94040/USA) linear trapezoidal method with linear interpolation. Ratio of fulvestrant obtained after dosing Compound I to that of Faslodex was calculated for parameters Cmax and AUC is reported in Table 6(A) and Table 6(B)."}, "[3]": {"assay": "Pharmacokinetics after single intramuscular administration in female SD rats (Example 18)", "type": "in vivo", "conditions": "Sprague-Dawley, rat, plasma, im, 59 mg/kg, Compound I 100 mg/mL, mean ± SD; for AUC(0-t): read-out: AUClast of Compound I in plasma", "protocol": "The objective of the study was to evaluate single site Vs. two site IM injection of compound I and it impact on pharmacokinetic exposure in female rats. Study was performed in female SD rats with n=6 animals per group. Faslodex 52 mg/kg (human equivalent dose) was administrated at two IM sites by dividing dose volume to half. In similar manner, 59 mg/kg (100 mg/mL compound I concentration) (52 mg/kg Fulvestrant equivalent) was administered as single injection (one IM site) or two IM injection by dividing dose volume in half. […] At each time point, −0.3 mL blood was collected in tubes containing Li-heparin as anti-coagulant. For plasma separation, blood was centrifuges at 5000 rpm for 10 minutes at 4° C. and collected plasma was stored at −80° C. until further analysis.\nBioanalysis in plasma samples was performed using fit-for-purpose LC-MS/MS method for the quantification Fulvestrant and Compound I. Linearity range for Fulvestrant and Compound I analytes were 2 to 2000 ng/mL. The bioanalytical summary for Fulvestrant concentration in all three groups is shown in table 1 and graphical representation is shown in FIG. 1 Concentration of Compound I is shown in table 2 and graphical representation is shown in FIG. 2. The plasma pharmacokinetic parameters for Fulvestrant and Compound I were calculated using standard non-compartmental analysis (Phoenix® software, version 8.1, Pharsight Corporation, Mountain View, California 94040/USA) linear trapezoidal method with linear interpolation."}, "[4]": {"assay": "Pharmacokinetic study in female Beagle dog, 169.5 mg/mL composition (Example 24)", "type": "in vivo", "conditions": "female Beagle dogs, Compound I 169.5 mg/mL, 17 mg/kg IM, two sites", "protocol": "A total of 2 female beagle dogs were used in this study.\nas §1, §2\nas §3, with “pre-labeled” for “pre-labelled”\nBioanalysis of plasma samples was performed using fit-for-purpose LC-MS/MS method for the quantification of fulvestrant and Compound I.\nLinearity range for Fulvestrant and Compound I analytes were 1 to 1000 ng/mL. The plasmapharmacokinetic parameters for Fulvestrant and Compound I were calculated using standard non-compartmental analysis (Phoenix® software, version 8.3, Pharsight Corporation, Mountain View, California 94040/USA) linear trapezoidal method with linear interpolation."}, "[5]": {"assay": "Pharmacokinetic study in male cynomolgus monkey (Example 25)", "conditions": "male cynomolgus monkeys; Compound I 28.3 mg/kg IM, 169.5 mg/mL, one site", "procedure": "as §4"}, "[6]": {"conditions": "composition with 113 mg/ml compound I, Initial"}, "[7]": {"conditions": "composition with 113 mg/ml compound I, Room Temp (45 Days)"}, "[8]": {"conditions": "composition with 169.5 mg/ml compound I, Initial"}, "[9]": {"conditions": "composition with 169.5 mg/ml compound I, Room Temp (30 Days)"}, "[10]": {"conditions": "composition with 226 mg/ml compound I, Initial"}, "[11]": {"conditions": "composition with 226 mg/ml compound I, Room Temp (30 Days)"}},
  "data": [
    {"smiles": "C[C@]12CC[C@@H]3c4ccc(OP(=O)(O)O)cc4C[C@@H](CCC[S+]([O-])CCCC(F)(F)C(F)(F)F)[C@H]3[C@@H]1CC[C@@H]2O", "note": "(stereo partly shown) [Compound I]", "values": [
      {"measurement": "Description", "setting": "[1]; composition with 113 mg/ml compound I (equivalent to 100 mg/ml Fulvestrant), Initial", "value": "Clear colorless to light"},
      {"measurement": "Assay of compound I(%)", "setting": "[1]; [6]", "value": 104.0, "unit": "%"},
      {"measurement": "Visual Inspection", "setting": "[1]; [6]", "value": "Clear solution, No"},
      {"measurement": "Assay of compound I(%)", "setting": "[1]; [7]", "value": 103.3, "unit": "%"},
      {"measurement": "Description", "setting": "[1]; [7]", "value": "Clear colorless to light"},
      {"measurement": "Visual Inspection", "setting": "[1]; [7]", "value": "Clear solution, No"},
      {"measurement": "Description", "setting": "[1]; composition with 169.5 mg/ml compound I (equivalent to 150 mg/ml Fulvestrant), Initial", "value": "Clear colorless to light"},
      {"measurement": "Assay of compound I(%)", "setting": "[1]; [8]", "value": 100.4, "unit": "%"},
      {"measurement": "Visual Inspection", "setting": "[1]; [8]", "value": "Clear solution, No"},
      {"measurement": "Assay of compound I(%)", "setting": "[1]; [9]", "value": 95.30, "unit": "%"},
      {"measurement": "Description", "setting": "[1]; [9]", "value": "Clear colorless to light"},
      {"measurement": "Visual Inspection", "setting": "[1]; [9]", "value": "Clear solution, No"},
      {"measurement": "Assay of compound I(%)", "setting": "[1]; [10]", "value": 101.8, "unit": "%"},
      {"measurement": "Visual Inspection", "setting": "[1]; [10]", "value": "Clear solution, No"},
      {"measurement": "Assay of compound I(%)", "setting": "[1]; [11]", "value": 98, "unit": "%"},
      {"measurement": "Description", "setting": "[1]; [11]", "value": "Clear colorless to light"},
      {"measurement": "Visual Inspection", "setting": "[1]; [11]", "value": "Clear solution, No"},
      {"measurement": "AUC(0-t)", "setting": "in vivo", "value": 17500, "unit": "ng·h/mL"},
      {"measurement": "AUC% exp. pol of Compound I", "setting": "[2]; Compound I 50 mg/mL", "value": "0.967 ± 0.255", "unit": "%"},
      {"measurement": "AUC% exp. pol of Compound I", "setting": "[2]; Compound I 100 mg/mL", "value": "0.974 ± 0.886", "unit": "%"},
      {"measurement": "Cmax", "setting": "[2]; Compound I 50 mg/mL", "value": "624 ± 274", "unit": "ng/mL"},
      {"measurement": "Tmax", "setting": "[2]; Compound I 50 mg/mL", "value": "0.83 ± 1.01", "unit": "h"},
      {"measurement": "AUC(0-inf)", "setting": "[2]; Compound I 50 mg/mL", "value": "4260 ± 1060", "unit": "ng·h/mL"},
      {"measurement": "AUC(0-t)", "setting": "[2]; Compound I 50 mg/mL", "value": "4220 ± 1060", "unit": "ng·h/mL"},
      {"measurement": "Cmax", "setting": "[2]; Compound I 100 mg/mL", "value": "272 ± 183", "unit": "ng/mL"},
      {"measurement": "Tmax", "setting": "[2]; Compound I 100 mg/mL", "value": "1.83 ± 1.89", "unit": "h"},
      {"measurement": "AUC(0-inf)", "setting": "[2]; Compound I 100 mg/mL", "value": "4360 ± 1390", "unit": "ng·h/mL"},
      {"measurement": "AUC(0-t)", "setting": "[2]; Compound I 100 mg/mL", "value": "4320 ± 1410", "unit": "ng·h/mL"},
      {"measurement": "Cmax", "setting": "[3]; IM single site", "value": "969 ± 349", "unit": "ng/mL"},
      {"measurement": "Tmax", "setting": "[3]; IM single site", "value": "3.17 ± 2.56", "unit": "h"},
      {"measurement": "AUC(0-t)", "setting": "[3]; IM single site", "value": "12400 ± 3430", "unit": "ng·h/mL"},
      {"measurement": "Cmax", "setting": "[3]; IM two sites", "value": "1150 ± 500", "unit": "ng/mL"},
      {"measurement": "Tmax", "setting": "[3]; IM two sites", "value": "1.83 ± 0.41", "unit": "h"},
      {"measurement": "AUC(0-t)", "setting": "[3]; IM two sites", "value": "12800 ± 3120", "unit": "ng·h/mL"},
      {"measurement": "Tmax", "setting": "[4]; dog, plasma", "value": 8, "unit": "h"},
      {"measurement": "Cmax", "setting": "[4]; dog, plasma, mean ± SD", "value": "322 ± 14.1", "unit": "ng/mL"},
      {"measurement": "AUC(0-inf)", "setting": "[4]; dog, plasma, mean ± SD, read-out: AUCinf—obs of Compound I in plasma", "value": "5540 ± 1880", "unit": "ng·h/mL"},
      {"measurement": "AUC(0-t)", "setting": "[4]; dog, plasma, mean ± SD, read-out: AUClast of Compound I in plasma", "value": "5510 ± 1880", "unit": "ng·h/mL"},
      {"measurement": "AUC% exp. pol of Compound I", "setting": "[4]; mean ± SD", "value": "0.578 ± 0.303", "unit": "%"},
      {"measurement": "C_max (Compound I in plasma)", "setting": "[5]", "value": 1081, "unit": "ng/mL"},
      {"measurement": "T_max (Compound I in plasma)", "setting": "[5]", "value": 3.42, "unit": "h"},
      {"measurement": "T_½ (Compound I in plasma)", "setting": "[5]", "value": 12.79, "unit": "h"},
      {"measurement": "Tlast (Compound I in plasma)", "setting": "[5]", "value": 152.00, "unit": "h"}
    ]}
  ]
}
